From patent publication US7053194B2, “Compositions and methods for p53-mediated repression of gene expression” (Fox Chase Cancer Center, priority 1999, dated 2006)

Key:
[1] = test system: human breast carcinoma cells (MCF7); test: Northern analysis of survivin mRNA after doxorubicin; assay type: cell-based; settings: MCF7, 0.5 ug/mL doxorubicin, as early as twelve hours
Method: (§1) MCF-7 cells were maintained in RPMI-1640 supplemented with 10% fetal bovine serum and 100 units/ml of penicillin and streptomycin. The human melanoma cell line CaCl, and the derivative clone expressing the HPV E6 gene, were cultured as described (Ahn et al., Oncogene). The human osteosarcoma cell lines Saos-2 and U2-OS (kindly provided by Peter Adams, Fox Chase Cancer Center), the murine p21 knock-out fibroblasts (kindly provided by James Sherley, MIT) and the human lung adenocarcinoma cell line H1299 were cultured in DMEM supplemented with 10% fetal bovine serum and 100 units/ml of penicillin and streptomycin. Murine Va15 cells, containing the temperature-sensitive Valine 135 allele of p53, were maintained as described (Wu, et al., Genes & Devel. 7:1126–1132, 1993). All cells were grown at 37° C. […] For treatment with ultra-violet light, cells were irradiated with 0–10 J/m2 (as noted) of UV-C with a Spectroline X series ultraviolet lamp, and output was monitored with a traceable UV light meter (Fisher Scientific). […]
(§2) The full-length coding region for survivin was generated by reverse transcription-polymerase chain reaction (RT-PCR) using 5 ug of total RNA from the H1299 human lung adenocarcinoma cell line, using the Access RT-PCR kit (Promega) and the following oligonucleotides: forward 5′ […] […] Autoradiographs were quantitated using NIH image software. […]

melanoma cells (CaCl) = test: as above; assay type: cell-based, human; settings: 0.5 ug/mL doxorubicin, as early as twelve hours
Method: as §1, §2

[2] = test system: MCF7 breast carcinoma cells; test: Western analysis of p53 and survivin protein after doxorubicin; assay type: cell-based, human; settings: twenty-four hour treatment
Method: MCF-7 cells were maintained in RPMI-1640 supplemented with 10% fetal bovine serum and 100 units/ml of penicillin and streptomycin. The human melanoma cell line CaCl, and the derivative clone expressing the HPV E6 gene, were cultured as described (Ahn et al., Oncogene). The human osteosarcoma cell lines Saos-2 and U2-OS (kindly provided by Peter Adams, Fox Chase Cancer Center), the murine p21 knock-out fibroblasts (kindly provided by James Sherley, MIT) and the human lung adenocarcinoma cell line H1299 were cultured in DMEM supplemented with 10% fetal bovine serum and 100 units/ml of penicillin and streptomycin. […] For treatment with ultra-violet light, cells were irradiated with 0–10 J/m2 (as noted) of UV-C with a Spectroline X series ultraviolet lamp, and output was monitored with a traceable UV light meter (Fisher Scientific). For drug treatment, cells were treated with 0.5ug/ml adriamycin (doxorubicin, Sigma), or dilution vehicle alone, for twenty-four hours. p53 induction was monitored by western analysis of 100 ug protein as described (Murphy et al., Genes & Devel. 10:2971–2980, 1996), using 0.1ug/ml DO-1 (Ab-6, Calbiochem) or 421 (Ab-1, Calbiochem.
Western analysis was performed essentially as described (Murphy et al., 1999). […] Protein concentrations were determined using the Bio-Rad Dc Protein Assay (Bio-Rad). […]

With `COc1cccc2c1C(=O)c1c(O)c3c(c(O)c1C2=O)C[C@@](O)(C(=O)CO)C[C@@H]3O[C@H]1C[C@H](N)[C@H](O)[C@H](C)O1` [adriamycin, doxorubicin] the “mRNA levels for survivin” value [1] was “marked decreases in mRNA levels for survivin”, the “mRNA levels for survivin” value (melanoma cells (CaCl)) was “marked decreases in mRNA levels for survivin” and the “decrease of survivin protein levels” value [2] was 3–4 fold. For the same molecule, the “induction of p53 expression” value [2] was 4 fold.
